# Experimental data published in US11976057B2, “MrgX2 antagonists” (GlaxoSmithKline Intellectual Property Development Limited, priority 2020, dated 2024).
# Target: T1, human MRGPRX2 (Homo sapiens, UniProt Q96LB1)
# T1 sequence (Q96LB1 1-330): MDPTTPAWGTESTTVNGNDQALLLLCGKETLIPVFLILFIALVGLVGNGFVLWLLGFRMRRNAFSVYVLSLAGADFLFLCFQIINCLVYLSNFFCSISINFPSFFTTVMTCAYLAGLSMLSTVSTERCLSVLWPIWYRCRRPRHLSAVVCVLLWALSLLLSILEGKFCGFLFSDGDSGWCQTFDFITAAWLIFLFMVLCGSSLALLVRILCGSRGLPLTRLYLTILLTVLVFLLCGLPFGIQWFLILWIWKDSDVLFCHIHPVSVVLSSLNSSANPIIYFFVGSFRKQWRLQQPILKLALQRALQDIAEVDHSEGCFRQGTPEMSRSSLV
# Assay: Ca2+ mobilization assay (FLIPR TETRA): inhibition of Cortistatin-14 mediated MRGPRX2 activation
row,Compound,IC50 [nM]
1,"C[C@@H](C(=O)Nc1cnc(Oc2ccc(F)cc2F)cn1)N1CCC[C@@H](c2cc[n+]([O-])cc2)C1 [Example 181, 4-((S)-1-((S)-1-((5-(2,4-difluorophenoxy)pyrazin-2-yl)amino)-1-oxopropan-2-yl)piperidin-3-yl)pyridine 1-oxide]",10 to 100
2,"CCn1cc(C2CN([C@@H](C)C(=O)Nc3ccc(F)cn3)CCC2(F)F)ccc1=O (stereo partly drawn) [Example 188, (2S)-2-(3-(1-ethyl-6-oxo-1,6-dihydropyridin-3-yl)-4,4-difluoropiperidin-1-yl)-N-(5-fluoropyridin-2-yl)propanamide]",100 to 3160
3,"CNCc1cc(C2CN(C(C)C(=O)Nc3ccc(Oc4ccc(F)cc4)cn3)CCC2(F)F)c[nH]c1=O (stereo not shown) [Example 237, 2-(4,4-difluoro-3-(5-((methylamino)methyl)-6-oxo-1,6-dihydropyridin-3-yl)piperidin-1-yl)-N-(5-(4-fluorophenoxy)pyridin-2-yl)propanamide]",≤ 10
4,"CC(C(=O)Nc1ccc(C(=O)OC2CC2)cn1)N1CCC(F)(F)[C@@H](c2ccc(=O)[nH]c2)C1 (stereo partly drawn) [Example 83, cyclopropyl 6-(2-((S)-4,4-difluoro-3-(6-oxo-1,6-dihydropyridin-3-yl)piperidin-1-yl)propanamido) nicotinate]",100 to 3160
5,"C[C@@H](C(=O)Nc1ccc(Oc2c(F)cc(F)cc2F)cn1)N1CCC(F)(F)[C@@H](c2ccc(=O)[nH]c2)C1 [Example 96, (S)-2-((S)-4,4-difluoro-3-(6-oxo-1,6-dihydropyridin-3-yl)piperidin-1-yl)-N-(5-(2,4,6-trifluorophenoxy)pyridin-2-yl)propanamide]",≤ 10
6,"C[C@@H](C(=O)Nc1ccc(Oc2ccc(F)cc2)cn1)N1CCC(F)(F)[C@@H](c2c[nH]c(=O)c(CS(C)(=O)=O)c2)C1 [Example 214, (S)-2-((S)-4,4-difluoro-3-(5-((methylsulfonyl)methyl)-6-oxo-1,6-dihydropyridin-3-yl)piperidin-1-yl)-N-(5-(4-fluorophenoxy)pyridin-2-yl)propanamide]",≤ 10
7,"C[C@@H](C(=O)Nc1ccc(Cl)cn1)N1CCC(F)(F)[C@@H](c2ccc(=O)[nH]n2)C1 [Example 149, (S)-N-(5-chloropyridin-2-yl)-2-((R)-4,4-difluoro-3-(6-oxo-1,6-dihydropyridazin-3-yl)piperidin-1-yl)propanamide]",100 to 3160
8,"C[C@@H](C(=O)Nc1ccc(Oc2ccc(F)cc2)cn1)N1CCC(F)(F)[C@@H](c2cc[n+]([O-])cc2)C1 [Example 114, 4-((S)-4,4-difluoro-1-((S)-1-((5-(4-fluorophenoxy)pyridin-2-yl)amino)-1-oxopropan-2-yl)piperidin-3-yl)pyridine 1-oxide]",≤ 10
9,"C[C@H]1C[C@@H](c2ccc(=O)[nH]n2)CN([C@@H](C)C(=O)Nc2ccc(F)cn2)C1 [Example 162, (S)—N-(5-fluoropyridin-2-yl)-2-((3S,5R)-3-methyl-5-(6-oxo-1,6-dihydropyridazin-3-yl)piperidin-1-yl)propanamide]",100 to 3160
10,"C[C@@H](C(=O)Nc1ccc(Cl)cn1)N1CCC[C@@H](c2ccc(=O)n(CC(F)(F)F)c2)C1 (single isomer, unassigned) [Example 167]",100 to 3160
11,"C[C@@H](C(=O)Nc1ccc(OCC2CC2)nn1)N1CCC(F)(F)C(c2c[nH]c(=O)c(C#N)c2)C1 (stereo partly drawn) [Example 223, (2S)-2-(3-(5-cyano-6-oxo-1,6-dihydropyridin-3-yl)-4,4-difluoropiperidin-1-yl)-N-(6-(cyclopropylmethoxy)pyridazin-3-yl)propanamide]",10 to 100
12,C[C@H]1C[C@@H](c2ccc(=O)[nH]c2)CN([C@@H](C)C(=O)Nc2ccc(Cl)cn2)C1 [Example 172],100 to 3160
13,"CC(C(=O)Nc1cnc(Oc2ccc(F)cc2)cn1)C1CCC[C@@H](c2ccc(=O)[nH]c2)C1 (stereo partly drawn) [Example 284, N-(5-(4-fluorophenoxy)pyrazin-2-yl)-2-((3R)-3-(6-oxo-1,6-dihydropyridin-3-yl)cyclohexyl)propanamide]",10 to 100
14,"C[C@@H](C(=O)Nc1ccc(Oc2ccc(F)cc2F)cn1)N1CCC(F)(F)[C@@H](c2c[nH]c(=O)c([C@@H](N)C(F)(F)F)c2)C1 (single isomer, unassigned) [Example 236]",≤ 10
15,"C[C@@H](C(=O)Nc1ccc(OCC2CC2)cn1)N1CCC(F)(F)[C@@H](c2ccc(=O)n(CC(F)(F)F)c2)C1 (single isomer, unassigned) [Example 2]",≤ 10
16,"CC(C(=O)Nc1ccc(Oc2ccc(F)cc2)cn1)N1CCC(F)(F)C(c2c[nH]c(=O)c(CN3CCOCC3)c2)C1 (stereo not shown) [Example 226, 2-(4,4-difluoro-3-(5-(morpholinomethyl)-6-oxo-1,6-dihydropyridin-3-yl)piperidin-1-yl)-N-(5-(4-fluorophenoxy)pyridin-2-yl)propanamide]",10 to 100

row,Compound,IC50 [nM]
1,"C[C@@H](C(=O)Nc1ccc(Cl)cn1)N1CCC(F)(F)[C@@H](c2c[nH]c(=O)cn2)C1 [Example 136, (S)-N-(5-chloropyridin-2-yl)-2-((R)-4,4-difluoro-3-(5-oxo-4,5-dihydropyrazin-2-yl)piperidin-1-yl)propanamide]",100 to 3160
2,"C[C@@H](C(=O)Nc1ccc(OCC2CC2)cn1)N1CCC(F)(F)[C@@H](c2cc[n+]([O-])cc2)C1 [Example 111, 4-((S)-1-((S)-1-((5-(cyclopropylmethoxy)pyridin-2-yl)amino)-1-oxopropan-2-yl)-4,4-difluoropiperidin-3-yl)pyridine 1-oxide]",10 to 100
3,"C[C@@H](C(=O)Nc1ccc(Cc2ccccc2)nn1)N1CCC(F)(F)[C@@H](c2ccc(=O)[nH]c2)C1 [Example 12, (S)-N-(6-benzylpyridazin-3-yl)-2-((S)-4,4-difluoro-3-(6-oxo-1,6-dihydropyridin-3-yl)piperidin-1-yl)propanamide]",10 to 100
4,"C[C@@H](C(=O)Nc1ccc(Cl)cn1)N1CCC[C@@H](c2ccc(=O)n(Cc3ccccc3)c2)C1 (single isomer, unassigned) [Example 168]",100 to 3160
5,"C[C@@H](C(=O)Nc1ccc(OCC2CC2)nn1)N1CCC(F)(F)[C@@H](c2c[nH]c(=O)c(N)c2)C1 [Example 140, (S)-2-((S)-3-(5-amino-6-oxo-1,6-dihydropyridin-3-yl)-4,4-difluoropiperidin-1-yl)-N-(6-(cyclopropylmethoxy)pyridazin-3-yl)propanamide]",10 to 100
6,"CNCc1cc([C@H]2CN([C@@H](C)C(=O)Nc3ccc(Oc4ccc(F)cc4F)cn3)CCC2(F)F)c[nH]c1=O [Example 243, (S)-2-((S)-4,4-difluoro-3-(5-((methylamino)methyl)-6-oxo-1,6-dihydropyridin-3-yl)piperidin-1-yl)-N-(5-(2,4-difluorophenoxy)pyridin-2-yl)propanamide]",≤ 10
7,"CC(C(=O)Nc1ccc(Oc2ccc[nH]c2=O)cn1)N1CCC(F)(F)[C@@H](c2ccc(=O)[nH]c2)C1 (stereo partly drawn) [Example 72, 2-((S)-4,4-difluoro-3-(6-oxo-1,6-dihydropyridin-3-yl)piperidin-1-yl)-N-(5-((2-oxo-1,2-dihydropyridin-3-yl)oxy)pyridin-2-yl)propanamide]",10 to 100
8,"C[C@@H](C(=O)Nc1ccc(Cc2ccncc2)cn1)N1CCC(F)(F)[C@@H](c2ccc(=O)[nH]c2)C1 [Example 13, (S)-2-((S)-4,4-difluoro-3-(6-oxo-1,6-dihydropyridin-3-yl)piperidin-1-yl)-N-(5-(pyridin-4-ylmethyl)pyridin-2-yl)propanamide]",10 to 100
9,"C[C@@H](C(=O)Nc1ccc(C2CCC2)cn1)N1CCC(F)(F)[C@@H](c2ccc(=O)[nH]c2)C1 [Example 18, (S)-N-(5-cyclobutylpyridin-2-yl)-2-((S)-4,4-difluoro-3-(6-oxo-1,6-dihydropyridin-3-yl)piperidin-1-yl)propanamide]",100 to 3160
10,"C[C@@H](C(=O)Nc1cnc(Oc2ccc(F)cc2F)cn1)[C@H]1CCC[C@@H](c2ccc(=O)[nH]c2)C1 [Example 286, (R)-N-(5-(2,4-difluorophenoxy)pyrazin-2-yl)-2-((1S,3R)-3-(6-oxo-1,6-dihydropyridin-3-yl)cyclohexyl)propanamide]",≤ 10
11,"C[C@@H](C(=O)Nc1ccc(Oc2ccc(F)cc2F)cn1)N1CCC(F)(F)[C@@H](c2c[nH]c(=O)c(CNCC(F)(F)F)c2)C1 [Example 242, (S)-2-((S)-4,4-difluoro-3-(6-oxo-5-(((2,2,2-trifluoroethyl)amino)methyl)-1,6-dihydropyridin-3-yl)piperidin-1-yl)-N-(5-(2,4-difluorophenoxy)pyridin-2-yl)propanamide]",≤ 10
12,"C[C@@H](C(=O)Nc1ccc(F)cn1)N1CCC(F)(F)C(c2cc(N)c(=O)n(CC(F)(F)F)c2)C1 (stereo partly drawn) [Example 187, (2S)-2-(3-(5-amino-6-oxo-1-(2,2,2-trifluoroethyl)-1,6-dihydropyridin-3-yl)-4,4-difluoropiperidin-1-yl)-N-(5-fluoropyridin-2-yl)propanamide]",3160 to 31600
13,"CC(C(=O)Nc1ccc(OC2CC3(CCC3)C2)nn1)N1CCC(F)(F)[C@@H](c2ccc(=O)[nH]c2)C1 (stereo partly drawn) [Example 93, 2-((S)-4,4-difluoro-3-(6-oxo-1,6-dihydropyridin-3-yl)piperidin-1-yl)-N-(6-(spiro[3.3]heptan-2-yloxy)pyridazin-3-yl)propanamide]",100 to 3160
14,"C[C@@H](C(=O)Nc1ccc(Oc2ccc(F)cc2CN(C)C)cn1)N1CCC(F)(F)[C@@H](c2ccc(=O)[nH]c2)C1 [Example 98, (S)-2-((S)-4,4-difluoro-3-(6-oxo-1,6-dihydropyridin-3-yl)piperidin-1-yl)-N-(5-(2-((dimethylamino)methyl)-4-fluorophenoxy)pyridin-2-yl)propanamide]",100 to 3160
15,"C[C@@H](C(=O)Nc1ccc(Cl)cn1)N1CCC[C@@H](c2ccc(=O)n(C)c2)C1 [Example 176, (S)—N-(5-chloropyridin-2-yl)-2-((S)-3-(1-methyl-6-oxo-1,6-dihydropyridin-3-yl)piperidin-1-yl)propanamide]",3160 to 31600
